{"source": "patent US9289456B2", "about": "(priority 2010, dated 2016)", "key": {"VSV-GFP [1]": {"system": "VSV-GFP", "type": "cell-based, Vesicular Stomatitis Virus"}, "VSV-GFP [2]": {"system": "VSV-GFP", "experiment": "microbe, parasite or virus in culture", "type": "cell-based, Vesicular Stomatitis Virus"}, "Flotillin-1": {"system": "Flotillin-1", "experiment": "cells", "type": "cell-based, human"}, "Nup98": {"system": "Nup98", "experiment": "cells", "type": "cell-based", "conditions": "Homo sapiens, HeLa, 24 hrs, read-out: Nup98 protein level, % of control"}, "Rae1": {"system": "Rae1", "experiment": "cells", "type": "cell-based", "conditions": "Homo sapiens, HeLa, 24 hrs, read-out: Rae1 protein level, % of control"}, "MxA": {"system": "MxA", "type": "cell-based, human", "conditions": "24 hrs"}}, "note": "pIC50: −log10 of the molar value. Where “and” joins values, the source holds several entries; their conditions need not be identical. Equal entries are not always repeated. Where two headings read alike, the source gives them in different places. Marks after values point to notes of the source that are not given here."}
{"compound": "CC[C@H](C)C(=O)O[C@H]1C[C@@H](C)C=C2C=C[C@H](C)[C@H](CC[C@@H]3C[C@@H](O)CC(=O)O3)[C@H]21", "note": "[lovastatin]", "values": [{"measurement": "Cell survival", "setting": "HeLa cells", "value": "~30", "unit": "%"}, {"measurement": "Toxicity to HeLa cells", "setting": "HeLa cells", "value": "highly toxic"}]}
{"compound": "Methyl-β-cyclodextrin [MβCD]", "values": [{"measurement": "VSV G protein level, % of VSV control infection", "setting": "VSV-GFP [1]", "value": "150% and 195% and 247% and 182% and 210%"}, {"measurement": "VSV N/P protein level, % of VSV control infection", "setting": "VSV-GFP [1]", "value": "153% and 220% and 150% and 275% and 147% and 162%"}, {"measurement": "Attenuation of viral titers by pretreatment", "setting": "VSV-GFP [2]", "value": "attenuated"}, {"measurement": "Fold decrease of VSV titers", "setting": "VSV-GFP [2]", "value": 160, "unit": "fold"}, {"measurement": "VSV titer after pretreatment", "setting": "VSV-GFP [2]", "value": "5.25×10^4 (+/1−5.5×10^3) pfu/ml"}, {"measurement": "Cell survival", "setting": "HeLa cells", "value": "~20", "unit": "%"}, {"measurement": "Toxicity to HeLa cells", "setting": "HeLa cells", "value": "highly toxic"}]}
{"compound": "CC[C@H](C)C(=O)O[C@H]1C[C@H](O)C=C2C=C[C@H](C)[C@H](CC[C@@H](O)C[C@@H](O)CC(=O)O)[C@H]21", "note": "[pravastatin]", "values": [{"measurement": "Cell death rate, slope d", "setting": "HeLa cells", "value": "−1.20", "unit": "% cells/μM Prava"}, {"measurement": "Cell death rate, slope c", "setting": "HeLa cells; human", "value": "−1.78", "unit": "% cells/μM Prava"}]}
{"compound": "CCC(C)(C)C(=O)O[C@H]1C[C@@H](C)C=C2C=C[C@H](C)[C@H](CC[C@@H]3C[C@@H](O)CC(=O)O3)[C@H]21", "note": "[simvastatin]", "values": [{"measurement": "Pretreatment time required to inhibit VSV protein levels", "setting": "VSV-GFP [1]", "value": "≥ 4", "unit": "h"}, {"measurement": "Flotillin-1 levels, % of control", "setting": "Flotillin-1; 0.125 µM", "value": "~160% and ~100%"}, {"measurement": "Flotillin-1 levels, % of control", "setting": "Flotillin-1; 0.5 µM", "value": "~90", "unit": "%"}, {"measurement": "activity at 0.5 µM", "setting": "Flotillin-1; Homo sapiens, HeLa, read-out: Flotillin-1 levels, % of control", "value": "~75", "unit": "%"}, {"measurement": "Decrease of pfu in log-units", "setting": "VSV-GFP [2]", "value": 2, "unit": "log-units"}, {"measurement": "Fold lower pfu than control VSV-infected cells", "setting": "VSV-GFP [2]", "value": 660, "unit": "fold"}, {"measurement": "Pfu values (viral titer of supernatant)", "setting": "VSV-GFP [2]", "value": "1.80×10^4 (+/−3×10^3) pfu/ml"}, {"measurement": "pIC50", "setting": "VSV-GFP [2]; Vesicular stomatitis virus, HeLa, read-out: Concentration needed for reduction of pfu values to half of control (IC50)", "value": 6.56}, {"measurement": "activity at 0.125 µM", "setting": "Nup98; 0.125 μM", "value": 180, "unit": "%"}, {"measurement": "activity at 0.5 µM", "setting": "Nup98; 0.5 μM", "value": 240, "unit": "%"}, {"measurement": "activity at 2 µM", "setting": "Nup98; 2.0 μM", "value": 260, "unit": "%"}, {"measurement": "activity at 0.125 µM", "setting": "Rae1; 0.125 μM", "value": 196, "unit": "%"}, {"measurement": "activity at 0.5 µM", "setting": "Rae1; 0.5 μM", "value": 310, "unit": "%"}, {"measurement": "activity at 2 µM", "setting": "Rae1; 2.0 μM", "value": 390, "unit": "%"}, {"measurement": "MxA protein levels", "setting": "MxA; 0.125 μM", "value": "~400", "unit": "%"}, {"measurement": "MxA protein levels", "setting": "MxA; 0.5 μM", "value": 650, "unit": "%"}, {"measurement": "MxA protein levels", "setting": "MxA; 2.0 μM", "value": 150, "unit": "%"}, {"measurement": "Cell death rate (Δ% cell death per ΔμM), slope b", "setting": "HeLa cells", "value": "−2.61", "unit": "% cells/μM Sim"}, {"measurement": "Slope a (m), relative trend of cell survival, FIG. 18", "setting": "HeLa cells; 0.125-2 μM 8 hrs", "value": "−6.54"}, {"measurement": "Slope b (m), relative trend of cell survival, FIG. 18", "setting": "HeLa cells; 0.125-2 μM 8 hrs", "value": "−10.46"}, {"measurement": "Cell death rate (Δ% cell death per ΔμM), slope a", "setting": "HeLa cells; human", "value": "−1.63", "unit": "% cells/μM Sim"}]}
